Here are results for one molecule from US20080261902A1, “Pharmaceutical composition containing polydatin and its application” (Shenzhen Neptunus Pharmaceutical Co., Ltd., priority 2005, published 2008).

The structures appear in SMILES notation.

In this assay the test system is dogs in hemorrhagic shock. In words: Treatment effect of polydatin drug compositions to dogs in hemorrhagic shock (Embodiment 20). It counts as in vivo, Beagle dogs.

On to `NCCc1ccc(O)c(O)c1` [dopamine], for which the “average survival time (hour, x ± s)” value (3.0 mg/kg, continuous intravenous infusion 120 min, long-term survival calculated with 168 hours) is 103.00 ± 89.01 h. The survival rate reads like this: (24 hours, 3.0 mg/kg) 3 number/5; (48 hours, 3.0 mg/kg) 3 number/5; (72 hours, 3.0 mg/kg) 3 number/5. Besides, under “dogs in hemorrhagic shock, during and after infusion”, the “pulse pressure difference (FIG. 2)” value was “increasing range is obviously lower than the polydatin groups”.
